Laboratory results published in patent US20230416329A1, “A PEPTIDE WITH DISULFIDE BONDS AND INHIBITORY ACTIVITY AGAINST SERINE PROTEASES, DERIVED HYBRID PEPTIDES THEREOF, AND USES THEREOF” (INSTITUTE OF MATERIA MEDICA , CHINESE ACADEMY OF MEDICAL …, priority 2020, published 2023).
Bridge positions count the residues as written; N and C are the ends. Peptide text beside a SMILES is read from it.

Target: α-chymotrypsin (Bos taurus, UniProt P00766)
Experiment: Chymotrypsin inhibitory activity of peptides (AAPFpNA hydrolysis; IC50, Ki, residual activity)
Assay type: biochemical
Conditions: for Ki: Ki=IC50/(1+S/Km), Km 0.38 mM; for IC50: chymotrypsin 30 nM, AAPFpNA 0.5 mM
Description: The inhibition constants of various synthetic active peptide inhibitors (molecular scaffolds) against seine proteases were measured. The substrates N-succinyl-Ala-Ala-Pro-Phe-p-nitroaniline (AAPFpNA), Nα—Benzoyl-L-arginine-4-nitroaniline hydrochloride (BApNA) and N-succinyl-[…] (AAApNA) are used in competitive binding reaction to determine the inhibitory activities against α-chymotrypsin, bovine trypsin, and porcine pancreatic elastase, respectively. Experiments for α-chymotrypsin and bovine trypsin inhibition were measured in 20 mM CaCl2, 50 mM Tris-HCl buffer (pH 7.8), and that for porcine elastase inhibition was measured in 50 mM Tris-HCl buffer (pH 8.0). The concentration of the peptide was measured using optical density (OD) at 280 nm. The Michaelis constant (Km) of the enzyme hydrolysis substrate is calculated from the initial rate of substrate hydrolysis at 405 nm. The absorbance value of the substrate was measured at 405 nm after complete hydrolysis. All data were processed using nonlinear regression.
• (1) Added a total 190 μL of reaction buffer (20 mM CaCl2, 50 mM Tris-HCl (pH 7.8)) into the 96 well plate, followed by preheating at 37° C. for 15 min. Then added 2 μL of different concentrations of substrates (p-Nitroanilide, pNA, 0.5% in DMSO), and mixed by centrifugation at 500 rpm for 1 min. Finally, the plate was incubated at 37° C. for 20 min, and the absorbance value at 405 nm was measured. In the 200 μL of reaction system, the final concentrations of pNA were 0, 0.025, 0.05, 0.075, 0.1, 0.125, 0.15, 0.25, and 0.3 mM, respectively. Make three repetitions for each concentration and plot the OD405 m value with pNA concentration to obtain the standard curve. • (2) Added a total 190 μL of reaction buffer (20 mM CaCl2, 50 mM Tris-HCl (pH 7.8)) and 8 μL of 0.75 μM chymotrypsin into the 96 well plate, followed by preheating at 37° C. for 5 min. Then added 2 μL of different concentrations of substrates (AAPFpNA, dissolved in DMSO), and mixed by centrifugation at 500 rpm for 1 min. Finally, the plate was incubated at 37° C. for 20 min, and the absorbance value at 405 nm was measured. In the 200 μL of reaction system, the final concentrations of AAPFpNA were 0, 0.125, 0.25, 0.285, 0.33, 0.4, and 0.5 mM, respectively. Make three repetitions for each concentration and plot the OD405 nm value with time to obtain the corresponding curve. Divide the slope of the curve by the slope of the standard curve and the enzyme concentration to obtain the initial velocity V0 (mM/(min*mM protein). Plot the initial velocity V0 with the concentration of substrate AAPFpNA using Prism software, and the Michaelis constant Km value of chymotrypsin hydrolyzing AAPFpNA was obtained.
• (1) Added a total 190 μL of reaction buffer (20 mM CaCl2, 50 mM Tris-HCl (pH 7.8)), different concentrations of anti-chymorypsin peptides (CHs) into the pre-cold 96 well plate, followed by preheating at 37° C. for 5 min and centrifugated at 500 rpm for 1 min and allowed to stand for 4 minutes. Then added 8 μL of 750 nM chymotrypsin and incubated at 37° C. for 10 min, and centrifugated at 500 rpm for 1 min and allowed to stand for 9 minutes. Finally, added 2 μL of 50 mM AAPFpNA, and mixed by centrifugation at 500 rpm for 1 min. The plate was incubated at 37° C. for 90 min, and the absorbance value at 405 nm was measured. Three repetitions were made, and only reaction buffer and substrate were added in the blank control as the minimum absorption value (Min OD405 nm); Only reaction buffer, enzyme and substrate were added in the negative control as the maximum absorption value (Max OD405). • (2) In the 200 μL of reaction system, the final concentrations of chymotrypsin and AAPFpNA were 30 nM and 0.5 mM, respectively. • (3) Data statistics
Residual activity of enzyme (%)=(1−(Max OD405 nm−Sample OD405 nm)/(Max OD405 nm−Min OD405 nm))*100 […]

Row | Compound | inhibitory activity against chymotrypsin (in words) | Ki [µM] | IC50 [µM] | other results
1 | CC[C@H](C)[C@@H]1NC(=O)[C@H](CO)NC(=O)[C@H](Cc2ccc(O)cc2)NC(=O)[C@H]([C@@H](C)O)NC(=O)[C@H](C)NC(=O)[C@H](CO)NC(=O)CNC(=O)[C@@H](N)CSSC[C@@H](C(=O)N[C@H](C(=O)NCC(=O)O)C(C)C)NC(=O)[C@H](CCC(N)=O)NC(=O)[C@H](C)NC(=O)[C@@H]2CCCN2C1=O [CH23] (H-CGSATYSIPAQCVG-OH; disulfide 1-12; N-terminus and C-terminus assumed) | good inhibitory activity | 1.86 | 4.31 | –
2 | CC[C@H](C)[C@@H]1NC(=O)[C@H](CO)NC(=O)[C@H](Cc2ccc(O)cc2)NC(=O)[C@H]([C@@H](C)O)NC(=O)[C@H](C)NC(=O)[C@H](CO)NC(=O)CNC(=O)[C@@H](N)CSSC[C@@H](C(=O)N[C@@H](Cc2ccccc2)C(=O)NCC(=O)O)NC(=O)[C@H](CCCCN)NC(=O)[C@H](C)NC(=O)[C@@H]2CCCN2C1=O [CH24] (H-CGSATYSIPAKCFG-OH; disulfide 1-12; N-terminus and C-terminus assumed) | good inhibitory activity | 2.65 | 6.14 | –
3 | CC[C@H](C)[C@@H]1NC(=O)[C@@H]2CCCN2C(=O)[C@@H]2CCCN2C(=O)[C@H]([C@@H](C)CC)NC(=O)[C@H](CO)NC(=O)[C@H](Cc2ccccc2)NC(=O)[C@H]([C@@H](C)O)NC(=O)[C@@H](NC(=O)[C@@H](NC(=O)CN)[C@@H](C)O)CSSC[C@@H](C(=O)N[C@@H](CC(N)=O)C(=O)N2CCC[C@H]2C(=O)N[C@@H](CC(N)=O)C(=O)O)NC1=O [CH25] (H-GTCTFSIPPICNPN-OH; disulfide 3-11) | – | 0.12 | 0.28 | –
4 | CC[C@H](C)[C@@H]1NC(=O)[C@@H]2CCCN2C(=O)[C@@H]2CCCN2C(=O)[C@H]([C@@H](C)CC)NC(=O)[C@H](CO)NC(=O)[C@H](Cc2ccccc2)NC(=O)[C@H]([C@@H](C)O)NC(=O)[C@@H](NC(=O)[C@@H](NC(=O)CN)[C@@H](C)O)CSSC[C@@H](C(=O)N[C@@H](CC(N)=O)C(=O)O)NC1=O [CH26] (H-GTCTFSIPPICN-OH; disulfide 3-11; C-terminus assumed) | good inhibitory activity | – | – | –
5 | CC[C@H](C)[C@@H]1NC(=O)[C@@H]2CCCN2C(=O)[C@@H]2CCCN2C(=O)[C@H]([C@@H](C)CC)NC(=O)[C@H](CO)NC(=O)[C@H](Cc2ccccc2)NC(=O)[C@H]([C@@H](C)O)NC(=O)[C@H](C)NC(=O)[C@H]([C@@H](C)O)NC(=O)CNC(=O)[C@@H](N)CSSC[C@@H](C(=O)N[C@@H](CC(N)=O)C(=O)O)NC1=O [CH27] (H-CGTATFSIPPICN-OH; disulfide 1-12; N-terminus and C-terminus assumed) | certain inhibitory activity | 2.88 | 6.66 | Residual activity of chymotrypsin (peptide 0.01 μM): 102.7 ± 2.4%; Residual activity of chymotrypsin (peptide 0.1 μM): 105.3 ± 0.9%; Residual activity of chymotrypsin (peptide 1 μM): 106.0 ± 0.7%; Residual activity of chymotrypsin (peptide 3 μM): 86.8 ± 1.5%; Residual activity of chymotrypsin (peptide 6 μM): 64.9 ± 3.1%; Residual activity of chymotrypsin (peptide 10 μM): 26.2 ± 2.4%; Residual activity of chymotrypsin (peptide 25 μM): 15.5 ± 0.3%; Residual activity of chymotrypsin (peptide 100 μM): 2.9 ± 0.3%; Residual activity of chymotrypsin (peptide 300 μM): 1.2 ± 0.0%; Residual activity of chymotrypsin (peptide 1000 μM): 0.7 ± 0.1%
6 | CC[C@H](C)[C@@H]1NC(=O)[C@H](Cc2ccc(O)cc2)NC(=O)[C@H](C)NC(=O)[C@H](CCSC)NC(=O)[C@H](C)NC(=O)[C@H](CCC(=O)O)NC(=O)CNC(=O)[C@@H]2CCCN2C(=O)[C@@H](N)CSSC[C@@H](C(=O)N[C@@H](Cc2ccccc2)C(=O)O)NC(=O)[C@H](CO)NC(=O)[C@H](CCCNC(=N)N)NC1=O [CH28] (H-CPGEAMAYIRSCF-OH; disulfide 1-12; N-terminus and C-terminus assumed) | – | – | > 50 | –
